# Data: patent US4257941A, “Polycyclic nitrogen-containing compounds” (BASF Aktiengesellschaft, priority 1976, dated 1981)
# How the values were obtained:
# wheat = test: Growth height of wheat, greenhouse (Example 7); assay type: in vivo, wheat (Opal variety); settings: for Plant height relative: control 100
# Description: (§1) In the greenhouse, the four cereals wheat ("Opal" variety), rye ("Petkuser"), barley ("Villa") and oats ("Flamingskrone") were sown in plastic dishes 11.5 cm in diameter in a sandy loam adequately supplied with nutrients. The active ingredients were applied at various rates to the soil and to the leaves. When applied to the soil, the active ingredient were sprayed onto the surface of the soil on the day of sowing; in the case of leaf treatment, the leaves were sprayed in the usual manner at a growth height of the plants of 10 cm. During the 18 day growth period, the treated plants grew much more slowly than the untreated control, a fact later confirmed by measurements of the stem length. Measurements were taken of 100 plants from each series.
# (§2) The prior art agent used for comparison purposes was N-2-chloroethyl-N,N,N-trimethylammonium chloride (CCC; German Printed Application DAS No. 1,294,734).
# rye = test: Growth height of rye, greenhouse (Example 8); assay type: in vivo, rye (Petkuser); settings: for Plant height relative: control 100
# Description: as §1, §2
# barley = test: Growth height of barley, greenhouse (Example 9); assay type: in vivo, barley (Villa); settings: for Plant height relative: control 100
# Description: as §1, §2
# oats = test: Growth height of oats, greenhouse (Example 10); assay type: in vivo, oats (Flamingskrone); settings: for Plant height relative: control 100
# Description: as §1, §2
# Hordeum vulgare = test: Growth height of young cereal plants (Example 11, Table A); assay type: in vivo; settings: soil treatment
# Description: (§3) The vessels used for the experiments were plastic pots having a volume of 1,130 cm^3 (Table A) or paraffined paper cups having a volume of 170 cm^3 (Table B). The pots and cups were filled with a sandy loam. The seeds of the test plants-separated by species-were sown shallow. Preemergence treatment (soil treatment) was effected immediately after sowing and before germination of the seeds. Seeds lying on the surface came into contact with the active ingredients. Postemergence treatment (leaf treatment) took place at an average growth height of the plants (depending on the rate of growth) of from 6 to 10 cm. The substances were suspended, emulsified or dissolved in water as diluent and applied by means of fine nozzles. The vessels were kept in the greenhouse in a temperature range of 12° C. to 25° C., and were regularly sprinkler irrigated for the duration of the experiment. The observation period was 6 to 8 weeks.
# Triticum aestivum = test: as above; assay type: in vivo
# Description: as §3
# spring barley = test: Stem length, lateral shoots and yield in spring barley (Example 12); assay type: in vivo; settings: 3 kg/ha
# Experimental: To examine the effect of the various substances on spring barley up to the maturity stage of the plants, an experiment was carried out in large pots. The plants were grown in quartz sand (fertilized with 2 g N as ammonium nitrate in 3 doses, 1 g P2 O5 as secondary sodium phosphate, 1.5 g K2 O as potassium sulfate, 0.5 g MgO as magnesium sulfate, 10 ml of a solution of trace elements, and 10 mg of iron as an iron complex). […] The treated plants were up to 10% shorter than the control, and yields were also slightly up.
# cotton = test: Induction of flowering and growth height of cotton, hydroponic (Example 18); assay type: in vivo; settings: for Shoot length: 4 weeks; for No. of squares per vessel (3 plants): control 0, average of 3 vessels; for Shoot length rel.: control 100
# Experimental: Cotton plants were subjected to hydroponic treatment under the same conditions as in Example 16. The active ingredients were added (1.25 mg/vessel=0.3 ppm and 5 mg/vessel=1.25 ppm) at a height of the plant of 15 to 18 cm. […] The results below are averages from 3 vessels, each of 3 plants.
# rice = test: Action on rice (Example 23); assay type: in vivo; settings: leaf; for Plant height: 66 days; for Plant height relative: control 100
# Experimental: At a growth height of 11 to 13 cm the active ingredients were sprayed onto the leaves in the usual manner. The plants were measured after 66 days.
# sunflowers = test: Action on sunflowers (Example 24); assay type: in vivo; settings: for Plant height relative: control 100
# Description: The active ingredients were applied both to the soil and to the leaves.
smiles,measurement,setting,value
"C[N+](C)(C)CCCl.[Cl-] [CCC, N-2-chloroethyl-N,N,N-trimethylammonium chloride, reference compound]",Plant height,"wheat; leaf, 0.125 kg/ha",28.0 cm
same,Plant height relative,"wheat; leaf, 0.125 kg/ha",93.3
same,Plant height,"wheat; leaf, 0.5 kg/ha",26.0 cm
same,Plant height relative,"wheat; leaf, 0.5 kg/ha",86.7
same,Plant height,"wheat; leaf, 1.0 kg/ha",26.0 cm
same,Plant height relative,"wheat; leaf, 1.0 kg/ha",86.7
same,Plant height,"wheat; leaf, 2.0 kg/ha",23.0 cm
same,Plant height relative,"wheat; leaf, 2.0 kg/ha",76.7
same,Plant height,"wheat; leaf, 4.0 kg/ha",23.0 cm
same,Plant height relative,"wheat; leaf, 4.0 kg/ha",76.7
same,Plant height,"wheat; soil, 0.5 kg/ha",26.0 cm
same,Plant height relative,"wheat; soil, 0.5 kg/ha",83.9
same,Plant height,"wheat; soil, 1.0 kg/ha",24.5 cm
same,Plant height relative,"wheat; soil, 1.0 kg/ha",79.0
same,Plant height,"wheat; soil, 2.0 kg/ha",22.5 cm
same,Plant height relative,"wheat; soil, 2.0 kg/ha",72.6
same,Plant height,"wheat; soil, 6.0 kg/ha",22.0 cm
same,Plant height relative,"wheat; soil, 6.0 kg/ha",71.0
same,Plant height,"rye; leaf, 0.125 kg/ha",29.0 cm
same,Plant height relative,"rye; leaf, 0.125 kg/ha",98.3
same,Plant height,"rye; leaf, 0.5 kg/ha",28.0 cm
same,Plant height relative,"rye; leaf, 0.5 kg/ha",94.9
same,Plant height,"rye; leaf, 1.0 kg/ha",27.5 cm
same,Plant height relative,"rye; leaf, 1.0 kg/ha",93.2
same,Plant height,"rye; leaf, 2.0 kg/ha",27.5 cm
same,Plant height relative,"rye; leaf, 2.0 kg/ha",93.2
same,Plant height,"rye; leaf, 4.0 kg/ha",29.0 cm
same,Plant height relative,"rye; leaf, 4.0 kg/ha",98.3
same,Plant height,"rye; soil, 0.5 kg/ha",28.0 cm
same,Plant height relative,"rye; soil, 0.5 kg/ha",96.6
same,Plant height,"rye; soil, 1.0 kg/ha",27.5 cm
same,Plant height relative,"rye; soil, 1.0 kg/ha",94.8
same,Plant height,"rye; soil, 2.0 kg/ha",28.0 cm
same,Plant height relative,"rye; soil, 2.0 kg/ha",96.6
same,Plant height,"rye; soil, 6.0 kg/ha",26.5 cm
same,Plant height relative,"rye; soil, 6.0 kg/ha",91.4
same,Plant height,"barley; leaf, 0.125 kg/ha",29.0 cm
same,Plant height relative,"barley; leaf, 0.125 kg/ha",96.7
same,Plant height,"barley; leaf, 0.5 kg/ha",28.5 cm
same,Plant height relative,"barley; leaf, 0.5 kg/ha",95.0
same,Plant height,"barley; leaf, 1.0 kg/ha",26.5 cm
same,Plant height relative,"barley; leaf, 1.0 kg/ha",88.3
same,Plant height,"barley; leaf, 2.0 kg/ha",27.0 cm
same,Plant height relative,"barley; leaf, 2.0 kg/ha",90.0
same,Plant height,"barley; leaf, 4.0 kg/ha",27.0 cm
same,Plant height relative,"barley; leaf, 4.0 kg/ha",90.0
same,Plant height,"barley; soil, 0.5 kg/ha",28.0 cm
same,Plant height relative,"barley; soil, 0.5 kg/ha",88.9
same,Plant height,"barley; soil, 1.0 kg/ha",27.0 cm
same,Plant height relative,"barley; soil, 1.0 kg/ha",85.7
same,Plant height,"barley; soil, 2.0 kg/ha",26.0 cm
same,Plant height relative,"barley; soil, 2.0 kg/ha",82.5
same,Plant height,"barley; soil, 6.0 kg/ha",25.0 cm
same,Plant height relative,"barley; soil, 6.0 kg/ha",79.4
same,Plant height,"oats; leaf, 0.125 kg/ha",28.0 cm
same,Plant height relative,"oats; leaf, 0.125 kg/ha",100
same,Plant height,"oats; leaf, 0.5 kg/ha",28.5 cm
same,Plant height relative,"oats; leaf, 0.5 kg/ha",101.8
same,Plant height,"oats; leaf, 1.0 kg/ha",28.0 cm
same,Plant height relative,"oats; leaf, 1.0 kg/ha",100
same,Plant height,"oats; leaf, 2.0 kg/ha",27.0 cm
same,Plant height relative,"oats; leaf, 2.0 kg/ha",96.4
same,Plant height,"oats; leaf, 4.0 kg/ha",25.5 cm
same,Plant height relative,"oats; leaf, 4.0 kg/ha",91.1
same,Plant height,"oats; soil, 0.5 kg/ha",28.0 cm
same,Plant height relative,"oats; soil, 0.5 kg/ha",100
same,Plant height,"oats; soil, 1.0 kg/ha",28.0 cm
same,Plant height relative,"oats; soil, 1.0 kg/ha",100
same,Plant height,"oats; soil, 2.0 kg/ha",27.0 cm
same,Plant height relative,"oats; soil, 2.0 kg/ha",96.4
same,Plant height,"oats; soil, 6.0 kg/ha",26.0 cm
same,Plant height relative,"oats; soil, 6.0 kg/ha",92.9
same,Growth height,Hordeum vulgare; 0.5 kg/ha,36 cm
same,Growth height,Hordeum vulgare; 1.0 kg/ha,31 cm
same,Growth height,Hordeum vulgare; 2.0 kg/ha,33 cm
same,Growth height,"Triticum aestivum; leaf treatment, 0.5 kg/ha",40 cm
same,Growth height,"Triticum aestivum; leaf treatment, 1.0 kg/ha",40 cm
same,Growth height,"Triticum aestivum; leaf treatment, 2.0 kg/ha",40 cm
same,Growth height,"Triticum aestivum; soil treatment, 0.5 kg/ha",40 cm
same,Growth height,"Triticum aestivum; soil treatment, 1.0 kg/ha",40 cm
same,Growth height,"Triticum aestivum; soil treatment, 2.0 kg/ha",33 cm
same,Ear weight,spring barley,95.0 g
same,No. of lateral shoots,spring barley,99
same,Stem length,spring barley,74.2 cm
same,Ear weight relative,spring barley; control 100,105.1
same,No. of lateral shoots relative,spring barley; control 100,106.5
same,Stem length relative,spring barley; control 100,96.5
same,Shoot length,cotton; 0.3 ppm,36.2 cm
same,No. of squares per vessel (3 plants),cotton; 0.3 ppm,0
same,Shoot length rel.,cotton; 0.3 ppm,76.7
same,Shoot length,cotton; 1.25 ppm,34.8 cm
same,No. of squares per vessel (3 plants),cotton; 1.25 ppm,0
same,Shoot length rel.,cotton; 1.25 ppm,73.8
same,buds / squares,cotton; 4 week growth period,withered in the nascent stage and dropped off
same,Plant height,rice; 1.0 kg/ha,38.0 cm
same,Plant height relative,rice; 1.0 kg/ha,93.6
same,Plant height,rice; 2.0 kg/ha,40.5 cm
same,Plant height relative,rice; 2.0 kg/ha,99.8
same,Plant height,rice; 4.0 kg/ha,38.5 cm
same,Plant height relative,rice; 4.0 kg/ha,94.8
same,Plant height,rice; 6.0 kg/ha,40.0 cm
same,Plant height relative,rice; 6.0 kg/ha,98.5
same,Plant height,"sunflowers; leaf, 1.5 kg/ha",38.0 cm
same,Plant height relative,"sunflowers; leaf, 1.5 kg/ha",99
same,Plant height,"sunflowers; leaf, 6.0 kg/ha",32.5 cm
same,Plant height relative,"sunflowers; leaf, 6.0 kg/ha",85
same,Plant height,"sunflowers; soil, 3.0 kg/ha",40.0 cm
same,Plant height relative,"sunflowers; soil, 3.0 kg/ha",110
same,Plant height,"sunflowers; soil, 12.0 kg/ha",36.0 cm
same,Plant height relative,"sunflowers; soil, 12.0 kg/ha",99
